In PMC3836566 (Chemical research in toxicology, 2013):
“Also recorded” adds a separate entry of the source.

Assays:
[1] = molecular target: thyroid hormone sulfotransferase activity in pooled human liver cytosol; test: Inhibition of 3,3′-T2 sulfotransferase activity; conditions: for IC50: read-out: IC50 (nM) (95% CI) for the inhibition of 3,3′-T2S formation, 1 μM 3,3′-T2, 0.25 mg protein/ml pooled human liver cytosol, 50 μM PAPS, 30 min, 37°C; for inhibition of 3,3′-T2 sulfation (result in words): range of concentrations tested 10–1000 nM
[2] = tested on: thyroid hormone sulfotransferase activity; test: 3,3′-T2 sulfation kinetics in pooled human liver cytosol; assay type: biochemical; conditions: human, pooled human liver cytosol
[3] = tested on: thyroid hormone sulfotransferase activity in pooled human liver cytosol; test: as above; assay type: biochemical
SULT1A1 = conditions: read-out: Km of 3,3′-T2 for SULT1A1; cited from earlier work
SULT2A1 = conditions: read-out: Km of 3,3′-T2 for SULT2A1; cited from earlier work
SULT1E1 = conditions: read-out: Km of 3,3′-T2 for SULT1E1; cited from earlier work
SULT1A3 = conditions: read-out: Km of 3,3′-T2 for SULT1A3; cited from earlier work
[4] = tested on: thyroid hormone sulfotransferase activity in pooled human liver cytosol; test: Mechanism of 3,3′-T2 sulfotransferase inhibition; assay type: biochemical; conditions: 3,3′-T2 0–5000 nM with varying 4-OH BDE 90; Vmax lower, apparent Km unchanged

| SMILES | IC50 [1] [nM] | also measured |
| --- | --- | --- |
| Oc1c(Br)cc(Br)cc1Br [2,4,6-TBP, 2,4,6-tribromophenol] | 8.3 |  |
| Oc1c(F)cc(F)cc1F [2,4,6-TFP, 2,4,6-trifluorophenol] | 4.6 |  |
| Oc1c(I)cc(I)cc1I [2,4,6-TIP, 2,4,6-triiodophenol] | 140 |  |
| Oc1ccccc1Oc1ccc(Br)cc1 [2′-OH BDE 3, 2′-OH 4-monoBDE] | 500 |  |
| N[C@@H](Cc1ccc(Oc2ccc(O)c(I)c2)c(I)c1)C(=O)O [3,3′-T2, 3,3′-diiodothyronine] |  | microsomal CLint [2]: 145 µL/min/mg; 3,3′-T2S formation rate under standard conditions ([3]; 1 μM 3,3′-T2, 30 min incubation, 0.25 mg protein/ml): 70–80 pmol/min.mg protein; Vmax for 3,3′-T2 sulfate formation ([3]; pooled human liver cytosol 0.25 mg protein/ml, 30 min): 153 ± 6.6 pmol/min.mg protein; Km ([3]; read-out: apparent Km for the 3,3′-T2 sulfation reaction, pooled human liver cytosol 0.25 mg protein/ml, 30 min): 1070 ± 120 nM; Km (SULT1A1): 120 nM; Km (SULT2A1): 3000 nM; Km (SULT1E1): 3.5 to 9.7 µM; Km (SULT1A3): 31 to 35 µM |
| Oc1c(Br)ccc(Oc2ccc(Br)cc2Br)c1Br [3-OH BDE 47, 3-OH 2,2′,4,4′-tetraBDE] | 60 |  |
| Oc1cccc(Oc2ccc(Br)cc2Br)c1 [3′-OH BDE 7, 3′-OH 2,4-diBDE] | 410 |  |
| Oc1cc(Oc2ccc(Br)cc2Br)ccc1Br [3′-OH BDE 28, 3′-OH 2,4,4′-triBDE] | 190 |  |
| Oc1c(Br)cc(Br)c(Oc2cc(Br)c(Br)cc2Br)c1Br [3′-OH BDE 154, 3-OH 2,2′,4,4′,5,6′-hexaBDE] | 80 |  |
| Oc1c(Br)cc(Oc2ccc(Br)cc2Br)c(Br)c1Br [4-OH BDE 90, 4-OH 2,2′,3,4′,5-pentaBDE] | 24 | inhibition mechanism [4]: non-competitive |
| Oc1cc(Br)c(Oc2ccc(Br)cc2Br)cc1Br [4′-OH BDE 49, 4′-OH 2,2′,4,5′-tetraBDE] | 650 |  |
| Oc1cc(Br)c(Oc2cc(Br)c(Br)cc2Br)cc1Br [4′-OH BDE 101, 4′-OH 2,2′,4,5, 5′-pentaBDE] | 640 |  |
| Oc1c(Br)c(Br)c(Oc2c(Br)cc(Br)c(Br)c2Br)c(Br)c1Br [4′-OH BDE 201, 4′-OH 2,2′,3,3′,4,5′,6,6′-octaBDE] | 510 |  |
| Oc1cc(Oc2ccc(Br)cc2Br)c(Br)cc1Br [5-OH BDE 47, 5-OH 2,2′,4,4′-tetraBDE] | 400 |  |
| Oc1cc(Oc2cc(Br)c(Br)cc2Br)c(Br)cc1Br [5′-OH BDE 99, 5′-OH 2,2′,4,4′,5-pentaBDE] | 520 |  |
| Oc1cc(Br)cc(Br)c1Oc1ccc(Br)cc1Br [6-OH BDE 47, 6-OH 2,2′,4,4′-tetraBDE] | 130 |  |
| Oc1cc(Br)cc(Br)c1Oc1cc(Br)c(Br)cc1Br [6′-OH BDE 99, 6′-OH 2,2′,4,4′,5-pentaBDE] | 310 |  |
| Brc1ccc(Oc2ccc(Br)cc2Br)c(Br)c1 [BDE 47, 2,2′,4,4′-tetrabromodiphenyl ether] |  | inhibition of 3,3′-T2 sulfation (result in words) [1]: did not inhibit 3,3′-T2 sulfation; also recorded: did not show inhibition; inhibition of 3,3′-T2 sulfation (result in words) ([1]; listed as BDE-47): did not show sulfotransferase inhibition |
| Oc1ccc(C(c2ccc(O)cc2)(C(F)(F)F)C(F)(F)F)cc1 [BPA-AF, 4,4′-(hexafluoroisopropylidene)diphenol] | 8590 |  |
| CC(C)(c1cc(Br)c(O)c(Br)c1)c1cc(Br)c(O)c(Br)c1 [TBBPA, tetrabromobisphenol A] | 460 |  |
| CC(C)(c1cc(Cl)c(O)c(Cl)c1)c1cc(Cl)c(O)c(Cl)c1 [TCBPA, 3,3′,5,5′-tetrachlorobisphenol A] | 340 |  |
| CC(C)(c1cc(I)c(O)c(I)c1)c1cc(I)c(O)c(I)c1 [TIBPA, 3,3′,5,5′-tetraiodobisphenol A] | 13200 |  |
| Oc1cc(Cl)ccc1Oc1ccc(Cl)cc1Cl [Triclosan, triclosan] | 1410 | fold less potent than 3′-OH BDE 28 ([1]; 3,3′-T2 sulfotransferase inhibition potency): approximately 7 fold |
